Experimental data reported in paper PMC2966039 (Journal of Medicinal Chemistry, 2009).

Key:
LmPTR1 = settings: cited from earlier work
TbPTR1 = target: T1, TbPTR1 (Trypanosoma brucei brucei, UniProt O76290); experiment: TbPTR1 activity assay; format: biochemical; settings: for Hill slope: averaged over at least two independent measurements; for ligand efficiency: from Ki^app
T1 sequence (O76290 1-268): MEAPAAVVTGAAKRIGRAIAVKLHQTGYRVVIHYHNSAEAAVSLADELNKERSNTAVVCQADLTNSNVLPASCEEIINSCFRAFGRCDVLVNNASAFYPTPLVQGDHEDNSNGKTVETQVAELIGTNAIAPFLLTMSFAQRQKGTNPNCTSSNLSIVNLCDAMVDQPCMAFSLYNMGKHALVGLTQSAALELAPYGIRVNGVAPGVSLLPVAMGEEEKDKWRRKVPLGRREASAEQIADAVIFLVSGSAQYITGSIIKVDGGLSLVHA

Compound	Hill slope (TbPTR1)	ligand efficiency (TbPTR1)	other results
Cc1cnc2nc(N)nc(N)c2n1 [6-methylpteridine-2,4-diamine]			inhibition constants (LmPTR1): low micromolar range
COC(=O)c1ccc2nc(N)sc2c1 [Compound 2]	0.6	0.46 kcal mol^−1/heavy atom	
Nc1nc2ccc(C(=O)N3CCCCC3)cc2s1 [Compound 3]	0.6	0.29 kcal mol^−1/heavy atom	
Nc1nc2ccc(Cl)cc2[nH]1 [Compound 4, 2-Amino-6-chloro-benzimidazole]	0.9	0.62 kcal mol^−1/heavy atom	
Nc1nc2ccccc2[nH]1 [Compound 5, 2-amino-benzimidazole]	0.9		drop in affinity (TbPTR1; compared to 4): more than 20 fold
Cc1cccc(-c2ccc3nc(N)[nH]c3c2)c1 [Compound 6]	1.1		
Nc1nc2ccccc2n1Cc1ccc(Cl)c(Cl)c1 [Compound 9, 1-(3,4-dichloro-benzyl)-2-amino-benzimidazole]	0.7		increase in affinity (TbPTR1; compared to the virtual screening hit (4)): more than 20 fold
Nc1nc2cccc(Cl)c2n1Cc1ccc(Cl)c(Cl)c1 [Compound 10, 7-Chloro-1-(3,4-dichlorobenzyl)-1H-benzo[d]imidazol-2-amine]	1.0		
CCCOc1cccc2nc(N)n(Cc3ccc(Cl)c(Cl)c3)c12 [Compound 11, 7-(n-Propyloxy)-1-(3,4-dichlorobenzyl)-1H-benzo[d]imidazol-2-amine]			increase in potency (TbPTR1; compared to the 7-chloro derivative 10): 10 fold
Nc1nc2cccc(-c3ccccc3)c2n1Cc1ccc(Cl)c(Cl)c1 [Compound 12, 7-Phenyl-1-(3,4-dichlorobenzyl)-1H-benzo[d]imidazol-2-amine]	0.7		
